Experimental data taken from patent publication US8691851B2, “Lanthanide metal complexes useful in treating cancer” (National University of Singapore, priority 2009, dated 2014).

Columns and labels:
Format in all cases: cell-based
[1] = system: SHEP-1 and MDA-MB-231 cancer cells; experiment: Morphological changes of cancer cells; conditions: 10 mM 3MA, then 5 μM (SHEP-1) or 10 μM (MDA-MB-231) C19H24N3O5S5Pr
LC3 II = LC3 II formation by Western blot; conditions: SHSY5Y cells, 5 or 10 mM 3MA for 2 hours, then 10 uM C19H24N3O5S5Pr for 7 hours
PPARγ = molecular target: T1, PPARγ (Homo sapiens, UniProt P37231); set-up: endogenous in cells; host or cells: SHSY5Y, SHEP1 / SHEP-1 (neuroblastoma); conditions: SHSY5Y and SHEP1 cells in 10% serum, 0 to 10 μM, 18 hours
T1 sequence (P37231 1-505): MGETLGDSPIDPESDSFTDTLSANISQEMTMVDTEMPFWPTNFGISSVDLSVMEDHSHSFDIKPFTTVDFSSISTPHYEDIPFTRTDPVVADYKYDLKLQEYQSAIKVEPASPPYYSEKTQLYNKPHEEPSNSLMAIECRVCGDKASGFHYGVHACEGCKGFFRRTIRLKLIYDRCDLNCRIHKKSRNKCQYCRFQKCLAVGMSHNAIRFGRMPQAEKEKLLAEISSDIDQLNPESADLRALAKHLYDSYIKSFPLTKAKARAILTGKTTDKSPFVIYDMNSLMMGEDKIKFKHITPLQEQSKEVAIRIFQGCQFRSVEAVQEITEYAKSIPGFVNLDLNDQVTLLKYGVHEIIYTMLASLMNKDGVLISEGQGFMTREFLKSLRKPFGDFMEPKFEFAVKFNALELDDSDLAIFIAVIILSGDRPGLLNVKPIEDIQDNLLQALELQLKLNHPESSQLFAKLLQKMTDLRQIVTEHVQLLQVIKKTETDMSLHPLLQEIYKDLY
Protocol: To determine if C19H24N3O5S5Pr activates PPARγ, SHSY5Y and SHEP1 neuroblastoma cells were transiently co-transfected with a 3×PPRE luciferase plasmid and renilla plasmid for transfection efficiency. Forty eight hours following transfection, the cells were exposed to increased concentrations (0 to 10 μM) of 15d-PGJ2 and C19H24N3O5S5Pr for 18 hours. The fold increase in luciferase activity correlates with the PPARγ activity of the cell. PPARγ activity is determined by calculating the RLU/renilla/μg total protein.
To assess if C19H24N3O5S5Pr activation of PPARγ is dependent on expression of PPARγ neuroblastoma cells, neuroblastoma cells SHEP1 and SHSY5Y were transiently co-transfected with a 3×PPRE luciferase plasmid and renilla plasmid for transfection efficiency. Forty eight hours following transfection, cells were exposed to increased concentrations (0 to 20 μM) of C19H24N3O5S5Pr for 18 hours. PPARγ activity was calculated as luciferase RLU/renilla/μg total protein.

RhoB = RhoB induction after preincubation with PPAR-γ antagonist; conditions: SHEP-1 cells, 10 uM GW9662 for 2 hours, then 10 uM C19H24N3O5S5Pr for 4 hours
Protocol: SHEP-1 cancer cells were preincubated with 10 uM GW9662, a pharmacological PPAR-γ antagonist that was able to abrogate the induction of RhoB protein by C19H24N3O5S5Pr, or vehicle control for 2 hours before being exposed to 10 uM of C19H24N3O5S5Pr for 4 hours.

Cn1cnc(N)c2ncnc1-2 [3MA, 3-methyl adenine, reference compound]
cell morphology after 3MA preincubation followed by C19H24N3O5S5Pr [1]: did not demonstrate this death-like morphology | LC3 II levels induced by C19H24N3O5S5Pr after 3MA preincubation (LC3 II): LC3 II levels were reduced

CCCCC/C=C/C=C1/C(=O)C=CC1C/C=C\CCCC(=O)O (stereo not shown) [15dPGJ2, 15-deoxy-Delta-12,14, prostaglandin, reference compound]
PPARγ activation (luciferase RLU/renilla/μg total protein) (PPARγ): did not display any PPARγ activation

O=C(Nc1ccccc1)c1cc([N+](=O)[O-])ccc1Cl [GW9662]
RhoB expression induced by C19H24N3O5S5Pr after antagonist preincubation (RhoB): RhoB was not expressed
